Laboratory results reported in patent US5164295A, “Method for identifying amyloid protein-extracellular matrix protein affinity altering compounds” (The Upjohn Company, priority 1991, dated 1992).
Values joined by “and” are separate entries in the source; they are usually repeats but may differ in a detail not shown here. Equal values may be shown once. Read-outs that look alike come from different tables or passages of the source.

How the values were obtained:
[1] = target: AAP751 /s; test: ELISA: binding of free HSPG (intact or core protein) to immobilized AAP751 /s; conditions: for Kd: absence of test compounds, mean ± SD, read-out: Kd of HSPG (intact or core protein) complex with AAP751 /s
Method: (§1) To study the interaction between HSPG and either AAP770 /s, AAP751 /s, AAP695 /s or fibronectin, the AAP proteins and fibronectin were individually immobilized on polystyrene wells and incubated with increasing concentrations of purified HSPG. Fibronectin was used as a test protein because of its known affinity for HSPG. […] To address this concern, the purified protein core of HSPG in place of the intact proteoglycan was utilized to examine the role of the protein component.
(§2) The assay used in studying the interaction between HSPG and protein ligands was an ELISA technique. Briefly, polystyrene micro-titer plates (Linbro, Flow Lab Inc.) were coated with a 100 μl solution, containing 1 μg/ml of the protein of interest (one of the three forms of AAP or fibronectin) in 20 mM NaHCO3 buffer pH 9.6. After incubation overnight at 4° C., the plates were rinsed with 0.15M NaCl, 20 mM Tris-Cl pH 7.5 (TBS). The plates were then incubated with 150 μl of 1% BSA in TBS for 2 hours at 37° C. to block the residual hydrophobic surface on the wells. After rinsing with TBS containing 0.05% (w/v) Tween 20 (TBS-Tween), 100 μl of various concentrations of HSPG in TBS-Tween were added. […] Finally, after further washing, the bound antibodies were detected by adding an alkaline phosphatase substrate solution (100 μl) containing 2 mg/ml p-nitrophenyl phosphate, 0.1 mM ZnCl2, 1 mM MgCl2 and 100 mM glycine pH 10. […] The absorbance of the released p-nitrophenol was measured at 405 nm with a Titertek Multiscan/MCC 340 (Flow Lab. Ltd.). The amounts of HSPG bound were determined by the net OD405 after substracting the OD from the blank wells in which the HSPG incubation step was omitted. When the actual amounts of HSPG bound were to be calculated, a set of standards (0.05-50 ng/well) of HSPG in NaHCO3 buffer were pre-coated into wells on the same plates as the test proteins. […] The actual amounts of HSPG bound to the test proteins were calculated from the OD405 standard curve produced by the HSPG standards using a Titersoft II E.J.A. software program (Flow Lab. Ltd.). […]

[2] = target: fibronectin; test: ELISA: binding of free HSPG (intact or core protein) to immobilized fibronectin; design: species or system bovine; conditions: absence of test compounds; mean ± SD; read-out: Kd of HSPG (intact or core protein) complex with fibronectin
Source text: Fibronectin (from bovine plasma), heparin (grade II from porcine intestinal mucosa, average molecular weight=[…]), heparan sulfate, chondroitin sulfate, dextran sulfate, BSA, and alkaline phosphatase substrate were obtained from Sigma, St. Louis, Mo. Alkaline phosphatase conjugated goat anti-rabbit IgG was obtained from Boehringer-Manneheim, and heparitinase from ICN Biochemicals.
To study the interaction between HSPG and either AAP770 /s, AAP751 /s, AAP695 /s or fibronectin, the AAP proteins and fibronectin were individually immobilized on polystyrene wells and incubated with increasing concentrations of purified HSPG. Fibronectin was used as a test protein because of its known affinity for HSPG. […]
(§3) The assay used in studying the interaction between HSPG and protein ligands was an ELISA technique. […] Finally, after further washing, the bound antibodies were detected by adding an alkaline phosphatase substrate solution (100 μl) containing 2 mg/ml p-nitrophenyl phosphate, 0.1 mM ZnCl2, 1 mM MgCl2 and 100 mM glycine pH 10. […] The absorbance of the released p-nitrophenol was measured at 405 nm with a Titertek Multiscan/MCC 340 (Flow Lab. Ltd.). The amounts of HSPG bound were determined by the net OD405 after substracting the OD from the blank wells in which the HSPG incubation step was omitted. […]

[3] = target: AAP695 /s; test: ELISA: binding of free HSPG (intact or core protein) to immobilized AAP695 /s
Method: as §1
as §2, with “added. The plates were left overnight at 4° C., to permit maximum binding of HSPG to the coated proteins. The plates were then washed extensively and incubated for 2 hours at 37° C., with 100 μl of anti-HSPG diluted in TBS-Tween containing 0.1% BSA.” for “added.”
To determine the Kd of the protein-HSPG complex, the binding data were analyzed assuming a thermodynamic equilibrium for the formation of the complex, B, from the ligand in solution, HSPG, and the uncomplexed protein adsorbed to the microtiter well, R, according to the equation: [formula] Due to the nature of the experimental design, nonspecific binding could not be measured directly. […]

[4] = target: AAP770 /s; test: ELISA: binding of free HSPG to immobilized AAP770 /s; conditions: absence of test compounds, mean ± SD, read-out: Kd of HSPG complex with AAP770 /s
Method: as §1
as §3, with “omitted. When the actual amounts of HSPG bound were to be calculated, a set of standards (0.05-50 ng/well) of HSPG in NaHCO3 buffer were pre-coated into wells on the same plates as the test proteins.” for “omitted.”

[5] = test system: BSA; test: ELISA control: binding of HSPG to BSA coated wells; design: species or system bovine
Method: The assay used in studying the interaction between HSPG and protein ligands was an ELISA technique. Briefly, polystyrene micro-titer plates (Linbro, Flow Lab Inc.) were coated with a 100 μl solution, containing 1 μg/ml of the protein of interest (one of the three forms of AAP or fibronectin) in 20 mM NaHCO3 buffer pH 9.6. After incubation overnight at 4° C., the plates were rinsed with 0.15M NaCl, 20 mM Tris-Cl pH 7.5 (TBS). The plates were then incubated with 150 μl of 1% BSA in TBS for 2 hours at 37° C. to block the residual hydrophobic surface on the wells. After rinsing with TBS containing 0.05% (w/v) Tween 20 (TBS-Tween), 100 μl of various concentrations of HSPG in TBS-Tween were added. […] Finally, after further washing, the bound antibodies were detected by adding an alkaline phosphatase substrate solution (100 μl) containing 2 mg/ml p-nitrophenyl phosphate, 0.1 mM ZnCl2, 1 mM MgCl2 and 100 mM glycine pH 10. […] The absorbance of the released p-nitrophenol was measured at 405 nm with a Titertek Multiscan/MCC 340 (Flow Lab. Ltd.). The amounts of HSPG bound were determined by the net OD405 after substracting the OD from the blank wells in which the HSPG incubation step was omitted. When the actual amounts of HSPG bound were to be calculated, a set of standards (0.05-50 ng/well) of HSPG in NaHCO3 buffer were pre-coated into wells on the same plates as the test proteins. […]

heparan sulfate proteoglycan [Intact HSPG]
Kd ([1]; listed as HSPG): 10.2 nM and 9 to 10 nM
Kd [1]: 10.2 ± 2.45 nM
Bmax, total binding capacity ([1]; typical experiment using AAP751 /s): 15.9±0.2 ng HSPG
Kd [2]: 0.98 nM
Kd ([3]; absence of test compounds, mean ± SD, listed as HSPG, read-out: Kd of HSPG (intact or core protein) complex with AAP695 /s): 0.88 nM and ~0.9 nM
Kd ([3]; absence of test compounds, mean ± SD, listed as intact HSPG, read-out: Kd of HSPG (intact or core protein) complex with AAP695 /s): 0.9 ± 0.25 nM
Kd ([3]; absence of test compounds, mean ± SD, read-out: Kd of HSPG (intact or core protein) complex with AAP695 /s): 0.88 ± 0.35 nM
Kd ([3]; heparin 400 μg/ml, read-out: Kd of HSPG (intact or core protein) complex with AAP695 /s in presence of heparin): 3.56 ± 1.78 nM
Kd ([4]; listed as HSPG): 9.13 nM and 9 to 10 nM
Kd [4]: 9.13 ± 1.06 nM
binding of HSPG to BSA in comparison to the tested proteins [5]: negligible
